Consider 9 test systems from the supplement of paper PMC6045584.

Assay in all cases: area under dose-response curve of surviving fraction (unscaled, Aref=0) (surviving fraction x log10(nM)); higher = more resistant
Common to all, as to details: exposure time: 5 days; dose range 0.5-1000 nM

Compound in one assay: CN1CCN(c2nc(C3=C(c4c[nH]c5ccccc45)C(=O)NC3=O)c3ccccc3n2)CC1 [SOTRASTAURIN/AEB071]
In a few lines: (§1)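 Tumour cell lines in 384-well plates were exposed to eight inhibitor concentrations, from 0.5 to 1000 nM, for five days, and viability was read by CellTiter-Glo luminescence in three screens per line. Signals were normalised to DMSO-only wells, and 3-parameter logistic regression in the drc R package fitted dose-response survival curves to the surviving fractions. Area under the curve is given as the unscaled activity area. That area is taken over log10 dose with Aref = 0.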

Compound in the next assay: C[C@@H](Oc1cc(-c2cnn(C3CCNCC3)c2)cnc1N)c1c(Cl)ccc(F)c1Cl [CRIZOTINIB]
In a few lines:
as §1

Compound in assay [1]: CCn1c(C(=O)N(C2CC2)C2CC2)cc2c3c(ncn3C)c(Nc3cc(C)n(C)n3)nc21
In a few lines: as §1

Compound in another assay: C[C@]12CC[C@H](O)CC1=CC[C@@H]1[C@@H]2CC[C@]2(C)C(c3cccnc3)=CC[C@@H]12 [ABIRATERONE]
In a few lines:
as §1

Compound in assay [2]: CNCc1ccc(-c2[nH]c3cc(F)cc4c3c2CCNC4=O)cc1
In a few lines:
as §1

Compound in another assay: COc1cc2c(Oc3ccc(NC(=O)C4(C(=O)Nc5ccc(F)cc5)CC4)cc3F)ccnc2cc1OCCCN1CCOCC1 [FORETINIB]
In a few lines: as §1

Compound in another assay: Cn1nnc2c(C(N)=O)ncn2c1=O [TEMOZOLOMIDE]
In a few lines: as §1

Compound in a further assay: Oc1nc(-c2ccc(C(F)(F)F)cc2)nc2c1CSCC2 [XAV-939]
In a few lines:
as §1

Compound in the next assay: NS(=O)(=O)OC[C@@H]1C[C@@H](n2ccc3c(N[C@H]4CCc5ccccc54)ncnc32)C[C@@H]1O [MLN-4924]
In a few lines: as §1

Compound in another assay: Cc1nc(Nc2ncc(C(=O)Nc3c(C)cccc3Cl)s2)cc(N2CCN(CCO)CC2)n1 [DASATINIB]
In a few lines:
as §1

Compound in assay [3]: C[C@@H](Oc1cc(-c2cnn(C3CCNCC3)c2)cnc1N)c1c(Cl)ccc(F)c1Cl
In a few lines:
as §1

Compound in another assay: O=C(c1cc(Cc2n[nH]c(=O)c3ccccc23)ccc1F)N1CCN(C(=O)C2CC2)CC1 [OLAPARIB]
In a few lines:
as §1

Compound in a further assay: CNC(=O)c1cc(Oc2ccc(NC(=O)Nc3ccc(Cl)c(C(F)(F)F)c3)cc2)ccn1 [SORAFENIB]
In a few lines:
as §1

Compound in assay [4]: COc1cc2ncnc(Nc3ccc(F)c(Cl)c3)c2cc1NC(=O)/C=C/CN1CCCCC1
In a few lines:
as §1

On to MDAMB436 BREAST, for which the “area under dose-response curve” value with SOTRASTAURIN/AEB071 amounted to 2.8; with CRIZOTINIB it was 3.4; in assay [1], 2.67; in the assay with ABIRATERONE, 3.11; in assay [2] it was 2.37; in the assay with FORETINIB, 3.16. The “area under dose-response curve” value with TEMOZOLOMIDE came out at 3.32; with XAV-939, 3.05; in the assay with MLN-4924, 2.24; in the assay with DASATINIB it was 2.65; in [3] it was 2.84; in the assay with OLAPARIB, 2.31. For the same test system, the “area under dose-response curve” value with SORAFENIB came out at 3.22; in [4] it was 3.06.
In the case of HOS BONE, the “area under dose-response curve” value in the assay with SOTRASTAURIN/AEB071 stood at 3.38; with CRIZOTINIB it was 3.13; in [1], 3.32; in the assay with ABIRATERONE, 3.5; in assay [2] it was 3.35; with FORETINIB, 3.06. In addition, the “area under dose-response curve” value in the assay with TEMOZOLOMIDE came out at 3.42; with XAV-939, 3.4; in the assay with MLN-4924, 2.11; in the assay with DASATINIB it was 2.29; in assay [3], 3.05; with OLAPARIB, 3.37. Further, the “area under dose-response curve” value with SORAFENIB amounted to 3.42; in assay [4] it was 3.27.
Turning to OS25HAL BONE, the “area under dose-response curve” value came out at 3.43 in the assay with SOTRASTAURIN/AEB071; 3.21 in the assay with CRIZOTINIB; 3.23 in [1]; 3.44 in the assay with ABIRATERONE; 2.85 with FORETINIB; 3.52 in the assay with TEMOZOLOMIDE. Further, the “area under dose-response curve” value in the assay with XAV-939 stood at 3.23; with MLN-4924 it was 2.39; with DASATINIB it was 2.28; in assay [3], 3.14; with OLAPARIB, 3.36; in the assay with SORAFENIB, 3.2. Besides, the “area under dose-response curve” value in assay [4] turned out to be 3.34.
As to CAL120 BREAST, the “area under dose-response curve” value with SOTRASTAURIN/AEB071 came to 3.28; with CRIZOTINIB, 3.24; in [1], 3.06; with ABIRATERONE, 3.35; in [2], 3.19; with FORETINIB, 3.06. Further, the “area under dose-response curve” value with TEMOZOLOMIDE amounted to 3.22; in the assay with XAV-939, 3.24; in the assay with MLN-4924, 2.22; with DASATINIB it was 1.98; in assay [3], 2.89; with OLAPARIB, 2.89. The “area under dose-response curve” value with SORAFENIB is 3.19; in [4], 3.14.
For the test system COLO320DM LARGE INTESTINE, the “area under dose-response curve” value was 3.45 in the assay with SOTRASTAURIN/AEB071; 3.21 with CRIZOTINIB; 3.77 in assay [1]; 3.36 with ABIRATERONE; 3.27 in [2]; 3.16 in the assay with FORETINIB. The “area under dose-response curve” value is 3.45 with TEMOZOLOMIDE; 3.19 with XAV-939; 3.14 with MLN-4924; 3.52 in the assay with DASATINIB; 3.01 in [3]; 3.46 with OLAPARIB. The “area under dose-response curve” value turned out to be 3.67 in the assay with SORAFENIB and 3.2 in [4].
Take CADOES1 SOFT TISSUE: the “area under dose-response curve” value with SOTRASTAURIN/AEB071 came out at 3.21; with CRIZOTINIB it was 3.05; in assay [1], 3.08; in [2], 2.97; with FORETINIB, 2.56; with TEMOZOLOMIDE, 3.11. For the same test system, the “area under dose-response curve” value with XAV-939 is 2.98; with MLN-4924, 2.57; with DASATINIB, 3.34; in assay [3], 2.94; with OLAPARIB, 3.04; with SORAFENIB, 2.92. Moreover, the “area under dose-response curve” value in assay [4] stood at 3.
For the test system MHM BONE, the “area under dose-response curve” value came to 3.52 with SOTRASTAURIN/AEB071; 3.27 with CRIZOTINIB; 3.28 in assay [1]; 3.43 in the assay with ABIRATERONE; 3.49 in [2]; 3.2 in the assay with FORETINIB. Besides, the “area under dose-response curve” value with TEMOZOLOMIDE was 3.31; in the assay with XAV-939, 3.28; with DASATINIB, 2.44; in assay [3], 3.21; in the assay with OLAPARIB it was 3.42; with SORAFENIB it was 3.47. In addition, in assay [4], the “area under dose-response curve” value came to 3.28.
With HOSMNG BONE, the “area under dose-response curve” value with SOTRASTAURIN/AEB071 is 3.24; with CRIZOTINIB it was 2.38; in [1], 3.39; with ABIRATERONE, 3.41; in assay [2] it was 3.01; with FORETINIB, 2.05. Also, the “area under dose-response curve” value in the assay with TEMOZOLOMIDE amounted to 3; with XAV-939 it was 3.14; with MLN-4924 it was 3.01; in the assay with DASATINIB, 2.21; in assay [3], 2.33; with OLAPARIB, 3.29. In addition, the “area under dose-response curve” value in assay [4] was 3.18.
Consider MFM223 BREAST, for which the “area under dose-response curve” value in the assay with SOTRASTAURIN/AEB071 stood at 2.95; with CRIZOTINIB, 3.69; in assay [1] it was 3.58; in the assay with ABIRATERONE, 3.88; in assay [2], 2.94; with FORETINIB, 3.08. The “area under dose-response curve” value with TEMOZOLOMIDE came to 4.05; with XAV-939, 3.24; in the assay with MLN-4924, 2.82; in the assay with DASATINIB, 2.52; in assay [3] it was 2.92; with OLAPARIB, 2.99. In addition, the “area under dose-response curve” value stood at 3.79 with SORAFENIB and 3.27 in assay [4].
